Reference: patent US20230212180A1, “SUBSTITUTED PYRAZINE COMPOUND, PHARMACEUTICAL COMPOSITION COMPRISING SAME, AND USE THEREOF” (Sichuan Kelun-Biotech Biopharmaceutical Co., Ltd., priority 2020, published 2023)
Read-outs that look alike come from different tables or passages of the source.

Key:
[1] = target: T1, recombinant full-length human PTPN11 (SHP2) (Homo sapiens, UniProt Q06124); assay: Inhibition of in vitro enzyme activity of SHP2 (DiFMUP fluorescence endpoint assay); type: biochemical; settings: SHP2 0.5 nM, DiFMUP 200 μM, IRS-1 0.5 μM; 60 min incubation
T1 construct: recombinant full-length human PTPN11 (SHP2), active (SignalChem); purchased SignalChem
T1 sequence (Q06124 1-593): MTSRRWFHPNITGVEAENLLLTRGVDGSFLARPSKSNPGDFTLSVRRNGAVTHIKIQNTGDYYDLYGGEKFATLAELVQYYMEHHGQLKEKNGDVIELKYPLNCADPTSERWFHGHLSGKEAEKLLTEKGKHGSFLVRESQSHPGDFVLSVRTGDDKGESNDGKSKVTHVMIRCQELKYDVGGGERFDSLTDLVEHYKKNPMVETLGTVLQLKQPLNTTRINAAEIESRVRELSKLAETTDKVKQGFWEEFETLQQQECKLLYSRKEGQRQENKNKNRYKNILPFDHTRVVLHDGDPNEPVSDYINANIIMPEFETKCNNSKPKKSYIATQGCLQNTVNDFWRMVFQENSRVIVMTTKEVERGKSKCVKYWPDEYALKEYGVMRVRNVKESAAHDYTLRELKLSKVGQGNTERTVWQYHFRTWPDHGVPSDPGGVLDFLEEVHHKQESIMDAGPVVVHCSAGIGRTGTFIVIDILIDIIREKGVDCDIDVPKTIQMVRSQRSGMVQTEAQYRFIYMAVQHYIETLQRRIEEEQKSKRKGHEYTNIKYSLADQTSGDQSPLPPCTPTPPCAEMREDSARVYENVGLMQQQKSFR
Experimental: Test Example 1: Experiment on the Inhibition of In Vitro Enzyme Activity of SHP2 (Protein Phosphatase)
phosphatase: recombinant full-length human PTPN11 (SHP2), active (SignalChem);
substrate: 6,8-difluoro-4-methylumbelliferyl phosphate (DiFMUP) (Invitrogen);
activating peptide: IRS1_pY1172(dPEG8)pY1222 (IRS1) (BPS Bioscience);
terminator: bpv(phen) (bpv) (Abcam).
SHP2 concentration: 0.5 nM;
DiFMUP concentration: 200 μM;
IRS-1 concentration: 0.5 μM;
bpv concentration: 160 μM;
buffer systems: 60 mM Hepes pH 7.2; 75 mM NaCl; 75 mM KCl; 0.05% surfactant P20; 1 mM EDTA; 5 mM DTT;
incubation duration of compound and enzyme: 60 minutes;
reaction time of enzyme and substrate: 30 minutes;
parameters for microplate reader: BMG PHERAstar fluorescence microplate reader at an excitation wavelength of 340 nm and an emission wavelength of 450 nm.
Test group: A mixture of the test compound and the phosphatase SHP2 together with the activating peptide IRS-1 were incubated in the buffer system at room temperature for 60 minutes. The substrate DiFMUP was added to initiate the reaction and incubated at room temperature for 30 minutes. Thereafter, bpv was added to terminate the reaction. The reaction plate was placed in the microplate reader, and the fluorescence intensities of the wells in the plate were measured using an endpoint assay.
Negative group: The experimental method for the negative group was the same as that for the test group, except that the test compound was substituted with 0.05% aqueous solution of DMSO.
Blank group: The experimental method for the blank group was the same as that for the test group, except that the test compound was substituted with 0.05% aqueous solution of DMSO and that SHP2 was not added.
The relative inhibitory activity was calculated for the test group at each concentration based on the following equation: inhibition rate (%)=100%−(the fluorescence intensity of the test group−the fluorescence intensity of the blank group)/(the fluorescence intensity of the negative group−the fluorescence intensity of the blank group)×100%. The half maximal inhibitory concentration (IC50) of the compound was calculated by fitting the curve according to the four-parameter logistic model.

CYP3A4 = target: T2, CYP3A4 (Homo sapiens, UniProt P08684); assay: Biochemical assay for CYP enzyme inhibition, P450-Glo CYP3A4 Screening System; type: in vitro ADME
T2 construct: purchased Promega
Experimental: (§1) Test Example 5: Biochemical Assay for CYP Enzyme (Cytochrome P450) Inhibition
P450-Glo™ CYP3A4 Screening System, (Promega).
(§2) BMG PHERAstar FS Luminescent.
(§3) The experiments were carried out separately according to the instructions of the kits. The steps were as follows:
3.3. Inhibition Against CYP3A4:
Test group: The test compounds at different concentrations were added into a microplate, and Luciferin-IPA ([…]), K3PO4 (100 mM), and CYP3A4 (2 nM) were added into each well, and pre-incubated at room temperature for 10 min. Thereafter, an NADPH regeneration system was added. The mixture was reacted at room temperature for 30 min. Finally, an equal volume of detection buffer was added and incubated at room temperature for 20 min, followed by chemiluminescence detection.
(§4) Negative control group: The experimental method for the negative control group was the same as that for the test group, except that the test compound was not added.
Blank control group: The experimental method for the blank control group was the same as that for the test group, except that the test compound was not added and that CYP3A4 was replaced with CYP3A4 Membrance (2 nM).
(§5) Percentage inhibition=(1−(the chemiluminescent signal value of the test compound group at a certain test concentration−the chemiluminescent signal value of the blank control group)/(the chemiluminescent signal value of the negative control group−the chemiluminescent signal value of the blank control group))×100%.
(§6) When the percentage inhibition was between 30% and 80%, a single value or a value range of the half maximal inhibitory concentration (IC50) of the compound against the CYP enzyme was estimated based on the following equation: IC50=X×(1−percentage inhibition)/percentage inhibition, wherein X was the test concentration of the compound.

CYP2D6 = target: T3, CYP2D6 (Homo sapiens, UniProt P10635); assay: Biochemical assay for CYP enzyme inhibition, P450-Glo CYP2D6 Screening System; type: in vitro ADME
T3 construct: purchased Promega
Experimental: as §1
P450-Glo™ CYP2D6 Screening System, (Promega);
as §2, §3
3.2. Inhibition Against CYP2D6:
Test group: The test compounds at different concentrations were added into a microplate, and Luciferin-ME EGE (3 μM), K3PO4 (100 mM), and CYP2D6 (5 nM) were added into each well, and pre-incubated at room temperature for 10 min. Thereafter, an NADPH regeneration system was added. The mixture was reacted at 37° C. for 30 min. Finally, an equal volume of detection buffer was added and incubated at room temperature for 20 min, followed by chemiluminescence detection.
as §4
Blank control group: The experimental method for the blank control group was the same as that for the test group, except that the test compound was not added and that CYP2D6 was replaced with CYP2D6 Membrance (5 nM).
as §5, §6

[2] = estimated from percentage inhibition, read-out: IC50 (μM) CYP3A4
[3] = estimated from percentage inhibition, read-out: IC50 (μM) CYP2D6

T3 sequence (P10635 whole entry): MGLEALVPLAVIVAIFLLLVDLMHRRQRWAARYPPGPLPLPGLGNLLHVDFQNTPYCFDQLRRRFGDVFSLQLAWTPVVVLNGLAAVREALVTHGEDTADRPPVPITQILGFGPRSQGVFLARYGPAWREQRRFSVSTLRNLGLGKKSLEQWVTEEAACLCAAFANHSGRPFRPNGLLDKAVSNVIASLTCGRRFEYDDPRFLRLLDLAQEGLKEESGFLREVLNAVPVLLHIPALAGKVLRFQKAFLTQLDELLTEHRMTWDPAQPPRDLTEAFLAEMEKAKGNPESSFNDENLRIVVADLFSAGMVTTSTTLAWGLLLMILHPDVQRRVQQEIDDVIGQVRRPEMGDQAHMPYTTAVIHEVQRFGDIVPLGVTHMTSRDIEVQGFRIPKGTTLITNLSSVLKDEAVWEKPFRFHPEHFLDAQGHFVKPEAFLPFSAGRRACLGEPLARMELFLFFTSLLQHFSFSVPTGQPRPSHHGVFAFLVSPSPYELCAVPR
T2 sequence (P08684 whole entry): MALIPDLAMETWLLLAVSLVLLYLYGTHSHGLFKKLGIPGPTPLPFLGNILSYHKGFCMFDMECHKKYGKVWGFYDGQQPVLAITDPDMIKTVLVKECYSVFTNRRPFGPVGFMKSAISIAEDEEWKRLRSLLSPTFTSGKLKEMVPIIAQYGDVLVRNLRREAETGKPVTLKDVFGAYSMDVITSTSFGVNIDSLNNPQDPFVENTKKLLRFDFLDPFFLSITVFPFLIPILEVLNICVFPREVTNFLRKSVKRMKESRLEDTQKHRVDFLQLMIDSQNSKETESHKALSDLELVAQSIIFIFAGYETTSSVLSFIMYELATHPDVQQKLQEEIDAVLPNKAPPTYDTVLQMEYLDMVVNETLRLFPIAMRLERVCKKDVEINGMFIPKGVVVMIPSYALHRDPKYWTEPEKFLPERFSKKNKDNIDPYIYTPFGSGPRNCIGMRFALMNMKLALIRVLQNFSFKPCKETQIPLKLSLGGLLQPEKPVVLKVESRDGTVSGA

| Compound | IC50 [1] [nM] | IC50 (CYP3A4) [µM] | IC50 (CYP2D6) [µM] | IC50 (CYP3A4; [2]) [µM] | IC50 (CYP2D6; [3]) [µM] |
| --- | --- | --- | --- | --- | --- |
| CC(O)C1CN(c2nccc(Sc3cnc(N4CCC5(CC4)CO[C@@H](C)[C@H]5N)c(CO)n3)c2Cl)C1 (stereo partly drawn) [Example 17, 1-(1-(4-(5-((3S,4S)-4-amino-3-methyl-2-oxa-8-azaspiro[4.5]decan-8-yl)-6-(hydroxymethyl)pyrazin-2-ylthio)-3-chloropyridin-2-yl)azetidin-3-yl)ethan-1-ol] | 2.5 | > 10 | > 10 | – | – |
| Cc1nc(N2CCC3(CC2)CO[C@@H](C)[C@H]3N)c(CO)nc1Sc1ccnc(N2CCCC2CO)c1Cl (stereo partly drawn) [Example 1] | 6.03 | > 10 | > 10 | – | – |
| CC(C)(O)C1CN(c2nccc(Sc3ncc(N4CCC5(CC4)Cc4ncccc4[C@H]5N)nc3N)c2Cl)C1 [Example 46, (S)-2-(1-(4-(3-amino-5-(5-amino-5,7-dihydrospiro[cyclopenta[b]pyridine-6,4′-piperidin]-1′-yl)pyrazin-2-ylthio)-3-chloropyridin-2-yl)azetidin-3-yl)propan-2-ol] | 2.6 | – | – | > 10 | > 10 |
| C[C@@H]1OCC2(CCN(c3ncc(Sc4ccnc(NCC5(O)CC5)c4Cl)nc3CO)CC2)[C@@H]1N [Example 15, 1-((4-(5-((3S,4S)-4-amino-3-methyl-2-oxa-8-azaspiro[4.5]decan-8-yl)-6-(hydroxymethyl)pyrazin-2-ylthio)-3-chloropyridin-2-ylamino)methyl)cyclopropan-1-ol] | 2.4 | > 10 | > 10 | – | – |
| CC(C)(O)C1CN(c2nccc(Sc3cnc(N4CCC5(CC4)COC[C@H]5N)c(CO)n3)c2Cl)C1 [Example 13, (S)-2-(1-(4-(5-(4-amino-2-oxa-8-azaspiro[4.5]decan-8-yl)-6-(hydroxymethyl)pyrazin-2-ylthio)-3-chloropyridin-2-yl)azetidin-3-yl)propan-2-ol] | 4.9 | – | – | > 10 | > 10 |
| CC(C)(O)C1CN(c2nccc(Sc3cnc(N4CCC5(CC4)Cc4ccccc4[C@H]5N)c(CO)n3)c2Cl)C1 [Example 23, (S)-2-(1-(4-(5-(1-amino-1,3-dihydrospiro[indene-2,4′-piperidin]-1′-yl)-6-(hydroxymethyl)pyrazin-2-ylthio)-3-chloropyridin-2-yl)azetidin-3-yl)propan-2-ol] | 1.9 | – | – | > 10 | > 10 |
| CC(C)(O)C1CN(c2nccc(Sc3cnc(N4CCC5(CC4)Cc4ncccc4[C@H]5N)c(CO)n3)c2Cl)C1 [Example 43, (S)-2-(1-(4-(5-(5-amino-5,7-dihydrospiro[cyclopenta[b]pyridine-6,4′-piperidin]-1′-yl)-6-(hydroxymethyl)pyrazin-2-ylthio)-3-chloropyridin-2-yl)azetidin-3-yl)propan-2-ol] | 2.6 | – | – | > 10 | > 10 |
| C[C@@H]1OCC2(CCN(c3ncc(Sc4ccnc(N5CCCC5CC(N)=O)c4Cl)nc3CO)CC2)[C@@H]1N (stereo partly drawn) [Example 19, 2-(1-(4-(5-((3S,4S)-4-amino-3-methyl-2-oxa-8-azaspiro[4.5]decan-8-yl)-6-(hydroxymethyl)pyrazin-2-ylthio)-3-chloropyridin-2-yl)pyrrolidin-2-yl)acetamide] | 1.5 | – | – | > 10 | > 10 |
| Cc1nc(N2CCC3(CC2)CO[C@@H](C)[C@H]3N)c(CO)nc1Sc1ccnc(N2CC(CS(C)(=O)=O)C2)c1Cl [Example 25, (3-((3S,4S)-4-amino-3-methyl-2-oxa-8-azaspiro[4.5]decan-8-yl)-6-(3-chloro-2-(3-(methylsulfonylmethyl)azetidin-1-yl)pyridin-4-ylthio)-5-methylpyrazin-2-yl)methanol] | 7 | > 10 | > 10 | – | – |
| C[C@@H]1OCC2(CCN(c3ncc(Sc4ccnc(N5CC(CS(C)(=O)=O)C5)c4Cl)nc3CO)CC2)[C@@H]1N [Example 26, (3-((3S,4S)-4-amino-3-methyl-2-oxa-8-azaspiro[4.5]decan-8-yl)-6-(3-chloro-2-(3-(methylsulfonylmethyl)azetidin-1-yl)pyridin-4-ylthio)pyrazin-2-yl)methanol] | 0.7 | > 10 | > 10 | – | – |
| C[C@@H]1OCC2(CCN(c3ncc(Sc4ccnc(N5CC(CO)(CF)C5)c4Cl)nc3CO)CC2)[C@@H]1N [Example 42, (3-((3S,4S)-4-amino-3-methyl-2-oxa-8-azaspiro[4.5]decan-8-yl)-6-(3-chloro-2-(3-(fluoromethyl)-3-(hydroxymethyl)azetidin-1-yl)pyridin-4-ylthio)pyrazin-2-yl)methanol] | 10.2 | – | – | > 10 | > 10 |
| C[C@@H]1OCC2(CCN(c3ncc(Sc4ccnc(N5CC(C(C)(C)O)C5)c4F)nc3CO)CC2)[C@@H]1N [Example 40, 2-(1-(4-(5-((3S,4S)-4-amino-3-methyl-2-oxa-8-azaspiro[4.5]decan-8-yl)-6-(hydroxymethyl)pyrazin-2-ylthio)-3-fluoropyridin-2-yl)azetidin-3-yl)propan-2-ol] | 4.13 | > 10 | > 10 | – | – |
| COCC1CN(c2nccc(Sc3cnc(N4CCC5(CC4)CO[C@@H](C)[C@H]5N)c(CO)n3)c2Cl)C1 [Example 21, (3-((3S,4S)-4-amino-3-methyl-2-oxa-8-azaspiro[4.5]decan-8-yl)-6-(3-chloro-2-(3-(methoxymethyl)azetidin-1-yl)pyridin-4-ylthio)pyrazin-2-yl)methanol] | 1.15 | > 10 | > 10 | – | – |
| C[C@@H]1OCC2(CCN(c3ncc(Sc4ccnc(N5CC(C(C)(C)O)C5)c4Cl)nc3CO)CC2)[C@@H]1N [Example 12, 2-(1-(4-(5-((3S,4S)-4-amino-3-methyl-2-oxa-8-azaspiro[4.5]decan-8-yl)-6-(hydroxymethyl)pyrazin-2-ylthio)-3-chloropyridin-2-yl)azetidin-3-yl)propan-2-ol] | 2.5 | > 10 | > 10 | – | – |
